Where two headings read alike, the source gives them in different places.
Key:
[1] = system: neutrophil influx (myeloperoxidase, MPO); experiment: Murine arachidonic acid-induced inflammation model: neutrophil influx in ear (myeloperoxidase activity); assay type: in vivo, female Balb/c mice; settings: Mus musculus, read-out: % Inh. MPO
Experimental: (§1) Murine Arachidonic Acid-Induced Inflammation Model
(§2) LTA4H inhibitor compounds of the present invention were dissolved in 20% cyclodextran/H2O at a concentration of 3 mg/mL. The solutions were administered by oral gavage to female Balb/c mice weighing approximately 20 grams each (0.2 mL per mouse, 30 mg of LTA4H inhibitor compound per kg). Sixty minutes after being administered an LTA4 inhibitor, each mouse received topical application of 20 μL of arachidonic acid (100 mg/mL in acetone) to the left ear and 20 μL of acetone only to the right ear. After 3 h, the mice were sacrificed, blood was withdrawn in heparinized syringes, and 8 mm ear biopsies were taken. Ear biopsies were weighed to determine edema and then frozen at −80° C. until needed for determination of neutrophil influx.
Neutrophil influx was quantified by measuring the activity of myeloperoxidase (MPO), a neutrophil-specific enzyme. The ear biopsies were homogenized in 0.5 mL extraction buffer (0.3 M sucrose, 0.22% (w/v) hexadecyl trimethyl ammonium bromide (CTAB), and 2.5 mM citrate prepared from 0.5 M citrate stock solution (pH 5.0)). Debris was removed by centrifugation at 14000×g for 10 min. Aliquots of 10 μL of the resulting supernatant were added to wells of a microtiter plate, along with 90-μL aliquots of dilution buffer (10 mM citrate, 0.22% CTAB), followed by addition of 20 μL TMB liquid substrate system (Sigma Chemical Co.) to each sample well. The microtiter plate contents were held at rt for 1 h. The reaction was stopped by addition of 100 μL 1 M H2SO4 to each sample well, and the myeloperoxidase activity in each sample was determined from the absorbance at 405 nm. The background value from the right ear, treated only with acetone, was subtracted from that for the left ear, treated with arachidonic acid in acetone, for each animal. The percent inhibition of neutrophil influx (% lnh. MPO) by compounds of the invention was determined by comparison to animals treated identically, except that the solution administered by oral gavage was devoid of inhibitor compound.

[2] = system: ex vivo stimulated LTB4 production; experiment: Murine arachidonic acid-induced inflammation model: ex vivo stimulated LTB4 production in blood; settings: Mus musculus; 30 mg/kg oral gavage, female Balb/c mice; blood taken 3 h after arachidonic acid, stimulated ex vivo with A23187; read-out: % Inh. LTB4
Experimental: as §1, §2
One hundred-microliter aliquots of heparinized blood were added to wells of a microtiter plate, along with equal volumes of RPMI-1640 medium, and calcium ionophore A23187 was added to each sample well (final concentration=[…]). The microtiter plate contents were incubated for 10 min at 37° C. in a humidified incubator. The reaction was terminated by centrifugation (833×g, 10 min at 4° C.). Supernatants were analyzed for LTB4 by a commercially available enzyme-linked immunoassay (Cayman Chemical Co.) in accordance with the manufacturer's instructions. The percent inhibition of ex vivo stimulated LTB4 production (% Inh. LTB4) was determined by comparison to animals treated identically except that the solution admininstered by oral gavage was devoid of inhibitor compound.

[3] = 30 mg/kg oral gavage 60 min before topical arachidonic acid to ear, female Balb/c mice, ear biopsies after 3 h

Compound	inhibition in vivo at 30 mg/kg [1, 3]	inhibition at 30 mg/kg [2]	inhibition in vivo at 30 mg/kg ([1]; po, 3 h)
O=C1CCCN1C1CCN(Cc2ccc(OCCc3ccccc3)cc2)CC1 [Example 99, 1-[1-(4-Phenethyloxy-benzyl)-piperidin-4-yl]-pyrrolidin-2-one]	17%	68%	–
O=C(O)C1CCN(CCc2ccc(OCCc3ccccc3)cc2)CC1 [Example 81, 1-[2-(4-Phenethyloxy-phenyl)-ethyl]-piperidine-4-carboxylic acid]	64%	78%	–
O=C(O)C1CCN(Cc2ccc(OCCc3ccccc3)cc2)CC1 [Example 96, 1-(4-Phenethyloxy-benzyl)-piperidine-4-carboxylic acid]	95%	80%	–
CN(C(=O)Oc1ccc(OCCN2CCC(O)(c3ccccc3)CC2)cc1)c1ccccc1 [Example 40, Methyl-phenyl-carbamic acid 4-[2-(4-hydroxy-4-phenyl-piperidin-1-yl)-ethoxy]-phenyl ester]	–	79%	75%
O=C(O)C1CCN(Cc2ccc(OCCCc3ccccc3)cc2)CC1 [Example 112, 1-[4-(3-Phenyl-propoxy)-benzyl]-piperidine-4-carboxylic acid]	79%	91%	–
O=C(O)C1CCN(CCOc2ccc(OCCCc3ccccc3)cc2)CC1 [Example 117, 1-{2-[4-(3-Phenyl-propoxy)-phenoxy]-ethyl}-piperidine-4-carboxylic acid]	62%	74%	–

From US20060223792A1, “Phenyl and pyridyl LTA4H modulators” (priority 2005, published 2006)
